Where two headings read alike, the source gives them in different places. *1 amine or outer side, *2 acyl side, *3 side chain or, on linkers, in order; H or OH if unused. The star is where a group is joined. Lys(5-TAMRA) = CN(C)c1ccc2c(-c3ccc(C(=O)NCCCC[C@H](N[*:1])C(=O)[*:2])cc3C(=O)[O-])c3ccc(N(C)C)cc3[o+]c2c1; 5FAM = O=C1OC2(c3ccc(O)cc3Oc3cc(O)ccc32)c2ccc(C(=O)*)cc21
What was measured:
Type in all cases: biochemical
Factor XIa [1] = target: T1, Factor XIa (Homo sapiens, UniProt P03951); assay: Factor XIa inhibition FLINT assay with fluorophore-quencher peptide substrate 5Fam-[…]-K5Tamra (end point EP or kinetic KIN reads); conditions: fit to a substrate inhibition model
Factor XIa [2] = target: T1, Factor XIa; assay: as above; conditions: end point read at 30 min; read-out: FXIa (EP) IC50
Text: Factor XIa inhibition assay utilizing a fluorophore-quencher pair peptide substrate A fluorescence intensity (FLINT) based assay was used to monitor inhibition of Factor XIa. The peptide substrate, 5Fam-[…]-K5Tamra (purchased from New England Peptide) was chosen based on the FXI sequence. Conversion of zymogen FXI to its activated form, FXIa, occurs by proteolytic cleavage by […] at two sites, Arg146 and Arg180. The custom peptide used in this assay was based on the Arg146 cleavage site of FXI. The peptide substrate was designed with a fluorophore-quencher pair, where the fluorescence is quenched until FXIa cleaves the 8-mer peptide after the Arg residue.
Test compound(s) were run in an 11-point, 3-fold serial dilution with a final top compound concentration of 100 nM. Final DMSO in assay was 2%. FXIa was preincubated with compound for 30-minutes and then substrate was added to initiate the reaction. The assay was run with either end point (EP) reads at 30 min or kinetic (KIN) reads at 5 min intervals over 30 minutes. […] More specifically, the assay was run as follows: • 100 nL of 0.01 mM test compound was dispensed into black 384-well non-binding Greiner BioOne 784900 plate for 0.1 μM final concentration; • 5 μL of 1× assay buffer was dispensed to column 24 (low control) and 5 μL 2× Factor XIa solution was dispensed to columns 1-23 (column 23 high control); • the plate was centrifuged with a “cover” plate at 500 rpm for 1 min • the plate was pre-incubated for 30 minutes at room temperature with plate covered; • 5 μL of 2×5Fam-[…]-K5Tamra peptide substrate was dispensed into the entire plate, columns 1-24; • the plate was centrifuged with a “cover” plate at 500 rpm for 1 min; • the plate was read monitoring fluorescence intensity on the BMG PHERAStar at room temperature, using fluorescence module 485 nm/520 nm.
Percent inhibition (IC50) curves were generated per compound tested, and data was analyzed using a 4-parameter logistic fit using GeneData Screener. The relative fluorescence unit (RFU) values were normalized to percent inhibition using the following equation: % inhibition=((HC−LC)−(compound−LC)/(HC−LC))*100
An 11-point dose response curve for the test compound(s) was generated using GENDATA to determine IC50 value based on the following equation: Y=Bottom+(Top−Bottom)/(1+10^((log IC50−X)*HillSlope))
Results listed in columns with […] designation were measured using endpoint reads where a single fluorescence reading was measured for each well at a 30 min timepoint.

human plasma kallikrein = human plasma kallikrein (Homo sapiens, UniProt P03952); assay: Kallikrein inhibition FLINT assay with quenched AMC peptide substrate Z-Gly-Pro-Arg-AMC (end point EP or kinetic KIN reads)
Summary of the method: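 Enzyme and compound were preincubated 30 min before adding 50 μM AMC substrate in pH 7.5 Tris/NaCl/CaCl2/BSA/CHAPS buffer. AMC release was read at 30 min endpoint or every 5 min.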

[3] = end point read at 30 min, read-out: Kallikrein (EP) IC50

Chain of human plasma kallikrein (P03952 391-638 limits assumed): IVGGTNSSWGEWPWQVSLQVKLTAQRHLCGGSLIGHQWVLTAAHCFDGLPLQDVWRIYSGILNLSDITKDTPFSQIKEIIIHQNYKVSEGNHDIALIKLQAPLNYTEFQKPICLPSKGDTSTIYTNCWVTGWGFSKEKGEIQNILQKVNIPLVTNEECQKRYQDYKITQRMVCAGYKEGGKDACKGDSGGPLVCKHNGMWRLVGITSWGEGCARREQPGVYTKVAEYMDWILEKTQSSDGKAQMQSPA
Chain of human plasma kallikrein (P03952 20-390 partner limits assumed): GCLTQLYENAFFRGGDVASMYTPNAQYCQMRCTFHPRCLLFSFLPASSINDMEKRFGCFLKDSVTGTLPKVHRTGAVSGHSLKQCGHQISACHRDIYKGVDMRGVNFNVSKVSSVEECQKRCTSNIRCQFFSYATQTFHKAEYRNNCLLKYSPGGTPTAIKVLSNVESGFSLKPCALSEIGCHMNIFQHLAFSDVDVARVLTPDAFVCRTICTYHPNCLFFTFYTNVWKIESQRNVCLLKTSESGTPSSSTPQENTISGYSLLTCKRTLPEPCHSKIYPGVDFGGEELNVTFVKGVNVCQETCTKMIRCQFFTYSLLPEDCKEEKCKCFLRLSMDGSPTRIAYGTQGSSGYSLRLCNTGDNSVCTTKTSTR
T1 sequence (P03951 388-625 limits assumed): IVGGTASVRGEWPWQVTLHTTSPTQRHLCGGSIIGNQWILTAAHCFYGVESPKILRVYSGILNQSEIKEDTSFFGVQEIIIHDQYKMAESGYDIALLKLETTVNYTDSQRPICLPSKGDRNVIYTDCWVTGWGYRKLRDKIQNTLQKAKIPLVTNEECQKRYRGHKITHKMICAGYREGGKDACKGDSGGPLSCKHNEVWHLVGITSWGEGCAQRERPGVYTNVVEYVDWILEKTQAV
T1 sequence (P03951 19-387 partner limits assumed): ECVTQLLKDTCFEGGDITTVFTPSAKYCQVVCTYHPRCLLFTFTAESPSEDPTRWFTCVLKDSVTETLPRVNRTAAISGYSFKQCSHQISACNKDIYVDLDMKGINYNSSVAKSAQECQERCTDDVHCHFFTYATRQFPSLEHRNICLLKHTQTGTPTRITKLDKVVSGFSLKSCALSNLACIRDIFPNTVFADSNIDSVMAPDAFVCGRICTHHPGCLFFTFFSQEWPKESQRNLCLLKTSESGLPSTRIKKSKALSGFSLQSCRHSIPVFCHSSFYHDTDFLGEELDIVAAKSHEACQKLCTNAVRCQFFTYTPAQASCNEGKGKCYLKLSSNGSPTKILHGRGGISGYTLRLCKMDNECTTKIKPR

Compound | Km (Factor XIa [1]; peptide substrate of FXIa) [µM] | kcat (Factor XIa [1]; peptide substrate of FXIa) [s⁻¹] | Ki (Factor XIa [1]; substrate inhibition constant) [nM] | IC50 (Factor XIa [2]) [nM] | IC50 (human plasma kallikrein; [3]) [nM] | IC50 (human plasma kallikrein; kinetic reads at 5 min intervals over 30 min, read-out: Kallikrein (KIN) IC50) [nM]
5Fam-KLTRAETV-K5Tamra (5FAM-KLTRAETV-{Lys(5-TAMRA)}; SMILES CC(C)C[C@H](NC(=O)[C@H](CCCCN)NC(=O)c1ccc2c(c1)C(=O)OC21c2ccc(O)cc2Oc2cc(O)ccc21)C(=O)N[C@H](C(=O)N[C@@H](CCCNC(=N)N)C(=O)N[C@@H](C)C(=O)N[C@@H](CCC(=O)O)C(=O)N[C@H](C(=O)N[C@H](C(=O)N[C@@H](CCCCNC(=O)c1ccc(-c2c3ccc(N(C)C)cc3[o+]c3cc(N(C)C)ccc23)c(C(=O)[O-])c1)C(=O)O)C(C)C)[C@@H](C)O)[C@@H](C)O) ["The peptide substrate ; (purchased from New England Peptide)", "designed with a fluorophore-quencher pair", based on the Arg146 cleavage site of FXI] | 12.4 | 0.86 | 61600 |  |  | 
O=C(O)c1ccc(-c2cnn(C(Cc3ccc(F)cc3)c3ccc(-c4cc(Cl)ccc4-n4cnnn4)c[n+]3[O-])c2)cc1 (stereo not shown) [Example P7] |  |  |  | 0.8 | 4.1 | 1.3
CN1Cc2cc(-c3cnn(C(CC4CC4)c4ccc(-c5cc(Cl)ccc5-n5cnnn5)c[n+]4[O-])c3)ccc2C1=O (stereo not shown) [Example P12] |  |  |  | 71.7 | 370 | 
O=C(O)c1cccc(-c2cnn(C(CC3CC3)c3c(F)cc(-c4cc(Cl)ccc4-n4cnnn4)c[n+]3[O-])c2)c1 (stereo not shown) [Example P11] |  |  |  | 6.9 | 81.4 | 

The remaining lines, values ahead:

Km (Factor XIa [1]; peptide substrate of FXIa) [µM] | kcat (Factor XIa [1]; peptide substrate of FXIa) [s⁻¹] | Ki (Factor XIa [1]; substrate inhibition constant) [nM] | IC50 (Factor XIa [2]) [nM] | IC50 (human plasma kallikrein; [3]) [nM] | IC50 (human plasma kallikrein; kinetic reads at 5 min intervals over 30 min, read-out: Kallikrein (KIN) IC50) [nM] | Compound
 |  |  | 55.6 | 598 |  | CN1CCc2cc(-c3cnn(C(CC4CC4)c4ccc(-c5cc(Cl)ccc5-n5cnnn5)c[n+]4[O-])c3)ccc2C1=O (stereo not shown) [Example P15]
 |  |  | 3.2 | 56 |  | COCCC(c1ccc(-c2c(-n3cnnn3)ccc(Cl)c2F)c[n+]1[O-])n1cc(-c2ccc(NC(=O)OC)cc2)cn1 (racemic) [Example P38]
 |  |  | 41 | 674 |  | O=C(O)c1ccc(-c2cnn(C(Cc3ccc(F)cc3)c3ccc(-c4cc(Cl)ccc4OCC(F)(F)F)c[n+]3[O-])c2)cc1 (stereo not shown) [Example Q2]

Source: patent publication US11814364B2, “Pyridine N-oxide derivatives useful as factor XIa inhibitors” (Janssen Pharmaceutica NV, priority 2021, dated 2023)
